Test: xn = mol fraction of the nth substance listed

C=CC(=O)OCCCC + C1CCOC1
viscosity [mPa·s], 101 kPa
Conditions | 293.15 K | 298.15 K | 303.15 K | 308.15 K | 313.15 K | 318.15 K
x2 = 0.0712 | 0.8609 | 0.8036 | 0.7505 | 0.7019 | 0.6569 | 0.6143
x2 = 0.1406 | 0.8246 | 0.7708 | 0.721 | 0.6751 | 0.6321 | 0.5913
x2 = 0.208 | 0.7908 | 0.7403 | 0.6935 | 0.65 | 0.609 | 0.5698
x2 = 0.2779 | 0.7572 | 0.71 | 0.6661 | 0.6249 | 0.5858 | 0.5482
x2 = 0.3685 | 0.7159 | 0.6727 | 0.6323 | 0.594 | 0.5571 | 0.5213
x2 = 0.4339 | 0.6875 | 0.6471 | 0.609 | 0.5727 | 0.5374 | 0.5028
x2 = 0.4996 | 0.6603 | 0.6225 | 0.5867 | 0.5522 | 0.5182 | 0.4848
x2 = 0.5642 | 0.6347 | 0.5995 | 0.5657 | 0.5328 | 0.5002 | 0.4677
x2 = 0.6426 | 0.6053 | 0.5729 | 0.5415 | 0.5104 | 0.4792 | 0.4478
x2 = 0.7208 | 0.5778 | 0.548 | 0.5187 | 0.4893 | 0.4592 | 0.4288
x2 = 0.7956 | 0.553 | 0.5256 | 0.4981 | 0.4701 | 0.4411 | 0.4115
x2 = 0.8642 | 0.5316 | 0.5063 | 0.4803 | 0.4534 | 0.4253 | 0.3964
x2 = 0.9322 | 0.5117 | 0.4882 | 0.4637 | 0.4378 | 0.4103 | 0.3819

C=CC(=O)OCCCC + CCCCC(C)O
viscosity [mPa·s], 101 kPa
Conditions | 298.15 K | 308.15 K
x1 = 0.05546 | 3.742 | 2.694
x1 = 0.0999 | 3.477 | 2.526
x1 = 0.1555 | 3.172 | 2.33
x1 = 0.1999 | 2.948 | 2.185
x1 = 0.2554 | 2.69 | 2.015
x1 = 0.3 | 2.499 | 1.889
x1 = 0.3555 | 2.28 | 1.743
x1 = 0.4 | 2.119 | 1.634
x1 = 0.4553 | 1.934 | 1.508
x1 = 0.5 | 1.796 | 1.413
x1 = 0.5556 | 1.639 | 1.304
x1 = 0.5998 | 1.523 | 1.222
x1 = 0.6554 | 1.39 | 1.128
x1 = 0.6998 | 1.291 | 1.057
x1 = 0.7554 | 1.178 | 0.957
x1 = 0.8 | 1.095 | 0.914
x1 = 0.8554 | 0.999 | 0.844
x1 = 0.9 | 0.928 | 0.791
x1 = 0.9555 | 0.847 | 0.729

CC(C)(C)c1ccccc1 + CCCCCCCCCCCCCCCC
viscosity [mPa·s], 100 kPa
Conditions | x2 = 0.0661 | x2 = 0.106 | x2 = 0.2088 | x2 = 0.3087 | x2 = 0.3877 | x2 = 0.5114 | x2 = 0.621 | x2 = 0.6915 | x2 = 0.8377 | x2 = 0.9225
298.15 K | 1.236 | 1.297 | 1.442 | 1.566 | 1.675 | 1.87 | 2.073 | 2.235 | 2.597 | 2.821
308.15 K | 1.065 | 1.111 | 1.235 | 1.343 | 1.427 | 1.584 | 1.749 | 1.868 | 2.138 | 2.298
318.15 K | 0.928 | 0.968 | 1.072 | 1.17 | 1.247 | 1.382 | 1.513 | 1.606 | 1.804 | 1.914

CN(C)CCO + CC(=O)c1ccccc1
viscosity [mPa·s], 101.3 kPa
Conditions | x2 = 0.0879 | x2 = 0.1782 | x2 = 0.2709 | x2 = 0.3663 | x2 = 0.4644 | x2 = 0.5654 | x2 = 0.6693 | x2 = 0.7762 | x2 = 0.8864
303.15 K | 2.331 | 2.243 | 2.155 | 2.067 | 1.98 | 1.892 | 1.804 | 1.716 | 1.628
313.15 K | 1.952 | 1.882 | 1.811 | 1.741 | 1.67 | 1.6 | 1.529 | 1.459 | 1.388
323.15 K | 1.689 | 1.644 | 1.6 | 1.555 | 1.51 | 1.465 | 1.42 | 1.375 | 1.33

CC(C)CO + CCCCCCC
303.15 K, 101.33 kPa
Conditions | viscosity [mPa·s]
x2 = 0.1513 | 1.552
x2 = 0.3016 | 1.023
x2 = 0.4515 | 0.724
x2 = 0.6022 | 0.562
x2 = 0.7374 | 0.478
x2 = 0.8984 | 0.421

C=CC(=O)OC + C1CCOC1
viscosity [mPa·s], 101 kPa
Conditions | 293.15 K | 298.15 K | 303.15 K | 308.15 K | 313.15 K | 318.15 K
x2 = 0.0773 | 0.4982 | 0.4567 | 0.4181 | 0.3852 | 0.3553 | 0.3283
x2 = 0.1554 | 0.4934 | 0.454 | 0.4172 | 0.3854 | 0.3561 | 0.3294
x2 = 0.2064 | 0.4907 | 0.4527 | 0.4169 | 0.3858 | 0.3569 | 0.3304
x2 = 0.2545 | 0.4885 | 0.4517 | 0.417 | 0.3865 | 0.3579 | 0.3315
x2 = 0.3215 | 0.486 | 0.4508 | 0.4174 | 0.3878 | 0.3596 | 0.3333
x2 = 0.3989 | 0.4838 | 0.4505 | 0.4186 | 0.3898 | 0.362 | 0.3358
x2 = 0.4655 | 0.4826 | 0.4507 | 0.4201 | 0.392 | 0.3644 | 0.3382
x2 = 0.53 | 0.4819 | 0.4515 | 0.422 | 0.3945 | 0.3671 | 0.3409
x2 = 0.6023 | 0.4819 | 0.453 | 0.4246 | 0.3977 | 0.3706 | 0.3442
x2 = 0.6834 | 0.4826 | 0.4553 | 0.4282 | 0.4018 | 0.3748 | 0.3483
x2 = 0.7632 | 0.4841 | 0.4583 | 0.4323 | 0.4064 | 0.3795 | 0.3528
x2 = 0.8468 | 0.4865 | 0.4622 | 0.4372 | 0.4118 | 0.3849 | 0.3579
x2 = 0.9316 | 0.4899 | 0.467 | 0.4429 | 0.4177 | 0.3909 | 0.3634

— the CheMixHub viscosity set
